This passage reports IC50 results from patent US20080085893A1, “MATRIX METALLOPROTEASE INHIBITORS” (priority 2006, published 2008).

What all share (assay type): biochemical
Test [1] has as its target T1, human MMP-3 (amino acids 100-265) (Homo sapiens, UniProt P08254).
T1 construct: human MMP-3 (amino acids 100-265); made in house
Description: MMP dose response assay for determining IC50, MMP-3. The note with it: recombinant enzyme, fluorescent-quench substrate 100 nM. On the procedure:
(§1) MMP Dose Response Assay for Determining IC50
(§2) The following method was used for determining IC50 values of different inhibitor compounds against multiple MMP enzymes. Frozen stocks of recombinantly produced MMPs were prepared in assay buffer (50 mM HEPES pH 7.4, 10 mM CaCl2, 0.05% Brij-35). The following domains were used to produce catalytically active version of the indicated MMP enzymes, human MMP-1 (amino acids 100-262), human MMP-2 (amino acids 1-660), human MMP-3 (amino acids 100-265), human MMP-9 (amino acids 107-446), human MMP-13 (amino acids 103-268), and rat MMP-9 (amino acids 108-446). Enzyme concentrations in the assay were determined empirically and set such that proteolytic activity was maintained in a linear range over the time-course of the experiment. Diluted enzymes were mixed with various test compounds that had been pre-diluted into assay buffer to establish concentration curves ranging from 10^−5 M to 10^−12 M. Compounds were diluted into assay buffer that contained an appropriate concentration of DMSO to maintain this at a constant in all wells. Each concentration for each test compound was tested in triplicate. MMP enzymes were equilibrated with compounds for 1 hour at room temperature, then a fluorescent-quench substrate (Acetyl-Cys(Eu)-Pro-Leu-Gly-Leu-Lys-(QSY7)-Ala-Arg-amide) was added to a final concentration of 100 nM. Following a 15 minute room temperature incubation, the assay plate was read on an EnVision plate reader using the following parameters: excitation wavelength 340 nM, emission wavelength 615 nM, number of flashes 100, delay before reading 300 milliseconds. Data was analyzed by first calculating average background value from wells that contained only substrate, and this value was subtracted from the entire plate. The 100%, or maximum value, was determined by averaging control wells that contained enzyme, substrate and DMSO. For each well, the percent of control was calculated by dividing the well value by the average DMSO value obtained above.
(§3) Additionally, compounds 27, 3, 65, 66, and 97 were tested in vitro for MMP-3, MMP-9 (rat), and MMP-13 antagonism.

The target in test [2] is T2, rat MMP-9 (amino acids 108-446) (Rattus norvegicus, UniProt P50282).
T2 construct: rat MMP-9 (amino acids 108-446); made in house
The test is described as follows: MMP dose response assay for determining IC50, rat MMP-9. The note with it: rat enzyme. On the procedure: as §1
as §2, with “Diluted enzymes were mixed with various test compounds that had been pre-diluted into assay buffer to establish concentration curves ranging from 10^−5 M to 10^−12 M. Compounds were diluted into assay buffer that contained an appropriate concentration of DMSO to maintain this at a constant in all wells. Each concentration for each test compound was tested in triplicate. MMP enzymes were equilibrated with compounds for 1 hour at room temperature, then a fluorescent-quench substrate (Acetyl-Cys(Eu)-Pro-Leu-Gly-Leu-Lys-(QSY7)-Ala-Arg-amide) was added to a final concentration of 100 nM.” left out, “For each well, the percent of control was calculated by dividing the well value by the average DMSO value obtained above.” left out

For test [3], the target named is T3, human MMP-9 (amino acids 107-446) (Homo sapiens, UniProt P14780).
T3 construct: human MMP-9 (amino acids 107-446); made in house
The test is described as follows: MMP dose response assay for determining IC50, MMP-9. The note with it: recombinant enzyme, fluorescent-quench substrate 100 nM; read-out: MMP-9. The procedure, abridged: (§4)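 Recombinant enzymes in 50 mM HEPES pH 7.4, 10 mM CaCl2, 0.05% Brij-35, at empirically set levels keeping activity linear, preincubated 1 h at room temperature with compound in triplicate. Fluorescence-quench peptide substrate (Eu/QSY7) added at 100 nM final. Background-subtracted signal expressed as percent of DMSO control for IC50.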

The target in test [4] is T4, human MMP-2 (amino acids 1-660) (Homo sapiens, UniProt P08253).
T4 construct: human MMP-2 (amino acids 1-660); made in house
T4 sequence (P08253 110-660): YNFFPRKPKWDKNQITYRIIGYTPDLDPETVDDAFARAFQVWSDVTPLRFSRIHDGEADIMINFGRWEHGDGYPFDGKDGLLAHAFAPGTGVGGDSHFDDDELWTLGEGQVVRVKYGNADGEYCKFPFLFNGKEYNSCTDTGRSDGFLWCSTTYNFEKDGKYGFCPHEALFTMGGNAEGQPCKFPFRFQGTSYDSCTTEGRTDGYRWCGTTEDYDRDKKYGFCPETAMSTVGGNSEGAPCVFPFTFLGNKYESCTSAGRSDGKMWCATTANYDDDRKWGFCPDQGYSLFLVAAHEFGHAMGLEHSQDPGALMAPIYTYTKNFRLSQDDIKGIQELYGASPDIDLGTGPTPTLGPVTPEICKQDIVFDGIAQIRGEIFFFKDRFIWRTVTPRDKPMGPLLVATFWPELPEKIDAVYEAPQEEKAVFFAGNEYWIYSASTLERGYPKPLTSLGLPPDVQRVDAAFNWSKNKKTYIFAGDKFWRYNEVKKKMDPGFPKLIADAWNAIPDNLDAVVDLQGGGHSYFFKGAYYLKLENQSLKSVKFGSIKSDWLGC
The test is described as follows: MMP dose response assay for determining IC50, MMP-2. The note with it: recombinant enzyme, fluorescent-quench substrate 100 nM; read-out: MMP-2. The method, boiled down: as §4

Test [5] has as its target T5, human MMP-13 (amino acids 103-268) (Homo sapiens, UniProt P45452).
T5 construct: human MMP-13 (amino acids 103-268); made in house
The test is described as follows: MMP dose response assay for determining IC50, MMP-13. The note with it: recombinant enzyme, fluorescent-quench substrate 100 nM. On the procedure:
as §1, §2, §3

Test [6] has as its target T6, human MMP-1 (amino acids 100-262) (Homo sapiens, UniProt P03956).
T6 construct: human MMP-1 (amino acids 100-262); made in house
T6 sequence (P03956 100-262): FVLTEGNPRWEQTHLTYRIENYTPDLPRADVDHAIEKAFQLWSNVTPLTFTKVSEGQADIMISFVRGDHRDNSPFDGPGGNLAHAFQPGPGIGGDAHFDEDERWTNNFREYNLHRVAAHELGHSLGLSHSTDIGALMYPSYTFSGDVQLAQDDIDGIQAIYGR
The test is described as follows: MMP dose response assay for determining IC50, MMP-1. The note with it: recombinant catalytic domain, fluorescent-quench substrate 100 nM. The procedure, abridged: as §4

Structures are written as SMILES. Several values for one entry are separate records, joined by “and”; a condition that tells them apart may be missing. Equal entries are not always repeated. Bounds are passed on as bounds.

T3 sequence (P14780 107-446): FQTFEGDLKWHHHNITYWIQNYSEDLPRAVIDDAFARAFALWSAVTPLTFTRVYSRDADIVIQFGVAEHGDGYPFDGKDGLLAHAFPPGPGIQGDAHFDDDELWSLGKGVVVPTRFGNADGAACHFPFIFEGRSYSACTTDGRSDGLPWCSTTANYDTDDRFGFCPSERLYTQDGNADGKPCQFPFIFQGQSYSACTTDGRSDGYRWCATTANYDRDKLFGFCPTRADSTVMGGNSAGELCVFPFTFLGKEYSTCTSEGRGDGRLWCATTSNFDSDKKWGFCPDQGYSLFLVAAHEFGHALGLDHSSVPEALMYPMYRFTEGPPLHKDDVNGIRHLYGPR
T1 sequence (P08254 100-265): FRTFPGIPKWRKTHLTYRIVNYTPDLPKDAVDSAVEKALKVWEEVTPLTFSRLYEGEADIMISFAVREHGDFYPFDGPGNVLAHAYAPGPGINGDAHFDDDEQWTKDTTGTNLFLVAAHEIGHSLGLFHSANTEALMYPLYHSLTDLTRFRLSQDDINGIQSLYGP
T2 sequence (P50282 108-446): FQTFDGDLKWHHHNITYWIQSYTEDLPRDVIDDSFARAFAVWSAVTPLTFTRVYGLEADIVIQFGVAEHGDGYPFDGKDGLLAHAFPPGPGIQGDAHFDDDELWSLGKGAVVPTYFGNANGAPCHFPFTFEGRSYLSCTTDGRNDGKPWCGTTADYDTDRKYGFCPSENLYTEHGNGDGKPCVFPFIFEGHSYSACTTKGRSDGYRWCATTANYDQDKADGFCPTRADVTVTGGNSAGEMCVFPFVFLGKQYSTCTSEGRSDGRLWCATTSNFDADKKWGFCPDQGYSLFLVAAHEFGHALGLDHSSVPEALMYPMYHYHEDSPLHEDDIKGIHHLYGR

On to `Cc1ccc(Oc2ccc(N(C[C@@H](C(=O)NO)N3CCOCC3)S(C)(=O)=O)cc2)cc1` [Example 27, N-Hydroxy (2S)-3-{N-[4-(4-methylphenoxy)phenyl],N-methanesulfonylamino}-2-(morpholin-4-yl)propionamide], for which the IC50 in test [1] is 136 nM; in test [2], 25.8 nM; in test [3] it was 1.52 nM and 2.56 nM and 0.93 nM and 4.05 nM and 2.49 nM; in test [4] it was 3.21 nM and 4.98 nM and 4.19 nM and 10.7 nM and 8.28 nM; in test [5], 3.53 nM; in test [6], above 10000 nM.

For the compound `Cc1ccc(Oc2ccc(N(C[C@H](NCCc3c[nH]c4ccccc34)C(=O)NO)S(C)(=O)=O)cc2)cc1` [Example 66], the IC50 is 822 nM in test [1]; 2.88 nM in test [3]; 41.2 nM in test [4]; 847 nM in test [5]; above 10000 nM in test [6].

For the compound `CC(C)N(C)[C@@H](CN(c1ccc(Oc2ccc(C(F)(F)F)cc2)cc1)S(C)(=O)=O)C(=O)NO` [Example 97, N-Hydroxy (2S)-2-[N-methyl,N-(2-prolyl)amino]-3-{N-[4-(4-trifluoromethylphenoxy)phenyl],N-methanesulfonylamino}propionamide], the IC50 in test [1] was 218 nM; in test [2], 175 nM; in test [3], 5.48 nM and 12.2 nM; in test [4], 17.4 nM and 29.9 nM; in test [5], 12.4 nM.
